Measurements: the NIST ThermoML archive (doi:10.1021/je200811n)

Details: Hot wire method

F/C=C/C(F)(F)F [trans-1,3,3,3-tetrafluoropropene]
Details | thermal conductivity [W/m/K]
293.73 K, 303 kPa, Gas | 0.01311
293.77 K, 95 kPa, Gas | 0.0133
293.85 K, 231 kPa, Gas | 0.01317
293.9 K, 400 kPa, Gas | 0.01318
294.04 K, 155 kPa, Gas | 0.01319
294.06 K, 345 kPa, Gas | 0.01312
294.27 K, 95 kPa, Gas | 0.01329
294.45 K, 343 kPa, Gas | 0.01318
301.02 K, 868 kPa, Liquid | 0.07405
301.09 K, 873 kPa, Liquid | 0.07375
301.25 K, 21041 kPa, Liquid | 0.08609
301.27 K, 15433 kPa, Liquid | 0.08285
301.28 K, 15438 kPa, Liquid | 0.08293
301.32 K, 10268 kPa, Liquid | 0.07996
301.32 K, 21030 kPa, Liquid | 0.08586
301.33 K, 5341 kPa, Liquid | 0.07696
301.35 K, 15435 kPa, Liquid | 0.08267
301.36 K, 15436 kPa, Liquid | 0.08267
301.39 K, 877 kPa, Liquid | 0.07371
301.4 K, 10267 kPa, Liquid | 0.07978
301.41 K, 810 kPa, Liquid | 0.07351
301.41 K, 5340 kPa, Liquid | 0.07676
301.47 K, 877 kPa, Liquid | 0.07359
301.48 K, 201 kPa, Gas | 0.01405
301.5 K, 101 kPa, Gas | 0.01387
301.5 K, 812 kPa, Liquid | 0.07342
301.64 K, 15430 kPa, Liquid | 0.0828
301.69 K, 10267 kPa, Liquid | 0.07986
301.7 K, 201 kPa, Gas | 0.01393
301.71 K, 21026 kPa, Liquid | 0.08586
301.72 K, 5338 kPa, Liquid | 0.07673
301.73 K, 101 kPa, Gas | 0.01377
301.74 K, 15425 kPa, Liquid | 0.08254
301.75 K, 15438 kPa, Liquid | 0.08085
301.8 K, 875 kPa, Liquid | 0.07346
301.81 K, 10267 kPa, Liquid | 0.07952
301.82 K, 21035 kPa, Liquid | 0.08546
301.83 K, 5339 kPa, Liquid | 0.07652
301.9 K, 871 kPa, Liquid | 0.07331
301.92 K, 820 kPa, Liquid | 0.07315
301.95 K, 201 kPa, Gas | 0.01381
301.98 K, 101 kPa, Gas | 0.01368
302.06 K, 15424 kPa, Liquid | 0.08252
302.07 K, 283 kPa, Gas | 0.01426
302.13 K, 10265 kPa, Liquid | 0.07959
302.17 K, 5336 kPa, Liquid | 0.0765
302.2 K, 201 kPa, Gas | 0.01376
302.23 K, 21022 kPa, Liquid | 0.08536
302.24 K, 102 kPa, Gas | 0.01362
302.26 K, 867 kPa, Liquid | 0.07328
302.26 K, 10266 kPa, Liquid | 0.07933
302.28 K, 278 kPa, Gas | 0.01416
302.28 K, 835 kPa, Liquid | 0.07308
302.31 K, 5328 kPa, Liquid | 0.07627
302.38 K, 21010 kPa, Liquid | 0.0851
302.4 K, 858 kPa, Liquid | 0.07303
302.43 K, 15441 kPa, Liquid | 0.08206
302.46 K, 201 kPa, Gas | 0.01371
302.51 K, 101 kPa, Gas | 0.01358
302.51 K, 273 kPa, Gas | 0.01407
302.51 K, 345 kPa, Gas | 0.01391
302.52 K, 15424 kPa, Liquid | 0.08203
302.61 K, 10265 kPa, Liquid | 0.07929
302.67 K, 5319 kPa, Liquid | 0.07625
302.68 K, 15424 kPa, Liquid | 0.08166
302.74 K, 270 kPa, Gas | 0.01405
302.77 K, 10264 kPa, Liquid | 0.079
302.78 K, 847 kPa, Liquid | 0.07298
302.8 K, 868 kPa, Liquid | 0.07244
302.84 K, 5317 kPa, Liquid | 0.07599
302.84 K, 21005 kPa, Liquid | 0.08503
302.86 K, 345 kPa, Gas | 0.01388
302.91 K, 15440 kPa, Liquid | 0.08218
302.94 K, 321 kPa, Gas | 0.01444
302.99 K, 267 kPa, Gas | 0.01402
303 K, 21003 kPa, Liquid | 0.08496
303.03 K, 15420 kPa, Liquid | 0.08154
303.06 K, 201 kPa, Gas | 0.01387
303.09 K, 515 kPa, Gas | 0.01405
303.1 K, 443 kPa, Gas | 0.01398
303.22 K, 15419 kPa, Liquid | 0.08081
303.24 K, 345 kPa, Gas | 0.01392
303.3 K, 101 kPa, Gas | 0.01415
303.42 K, 515 kPa, Gas | 0.01408
303.44 K, 443 kPa, Gas | 0.01405
303.46 K, 201 kPa, Gas | 0.01405
303.5 K, 21000 kPa, Liquid | 0.08483
303.63 K, 345 kPa, Gas | 0.01394
303.77 K, 515 kPa, Gas | 0.01408
303.8 K, 441 kPa, Gas | 0.01404
303.82 K, 515 kPa, Gas | 0.01409
303.89 K, 201 kPa, Gas | 0.01411
304.06 K, 345 kPa, Gas | 0.01397
304.14 K, 515 kPa, Gas | 0.01407
304.18 K, 102 kPa, Gas | 0.01422
304.18 K, 441 kPa, Gas | 0.01406
304.34 K, 201 kPa, Gas | 0.01397
304.53 K, 514 kPa, Gas | 0.01408
304.57 K, 442 kPa, Gas | 0.01401
304.57 K, 514 kPa, Gas | 0.0141
304.66 K, 101 kPa, Gas | 0.0142
311.41 K, 326 kPa, Gas | 0.01522
311.43 K, 200 kPa, Gas | 0.01495
311.44 K, 102 kPa, Gas | 0.01483
311.61 K, 325 kPa, Gas | 0.01511
311.65 K, 200 kPa, Gas | 0.01482
311.67 K, 102 kPa, Gas | 0.01465
311.83 K, 325 kPa, Gas | 0.01504
311.89 K, 200 kPa, Gas | 0.0147
311.91 K, 101 kPa, Gas | 0.01455
312.06 K, 325 kPa, Gas | 0.015
312.14 K, 200 kPa, Gas | 0.01462
312.16 K, 101 kPa, Gas | 0.01449

Details | thermal conductivity [W/m/K]
303.15 K, Liquid | 0.07268
